Source: patent publication US20150343038A1, “METHOD AND COMPOSITION FOR TREATING SPASTICITY” (THE REGENTS OF THE UNIVERSITY OF CALIFORNIA, priority 2013, published 2015)
“Also recorded” adds a separate entry of the source. Where two headings read alike, the source gives them in different places.

Assays:
[1] = tested on: rats with ischemic spasticity; conditions: intrathecal baclofen (1 μg elsewhere in the source); previous studies, same spinal ischemia-induced spasticity model; cited from earlier work
[2] = tested on: spasticity; conditions: cited from earlier work; for anti-spasticity effect in clinical studies: systemic (tiagabine: clinically-acceptable doses) or spinal administration
[3] = tested on: spastic patients; conditions: intrathecal treatment; cited from earlier work
[4] = tested on: rats with ischemic spasticity; type: in vivo, rat
[5] = tested on: in vitro cultured neurons; conditions: cited from earlier work
[6] = tested on: rats with ischemic spasticity; experiment: Hoffmann reflex (H-wave amplitude) during high frequency (20 Hz) stimulation; type: in vivo, rat
Experimental: H-reflex was recorded as previously described. Under ketamine anesthesia (100 mg/kg/hr, i.m.) the right hind limb of the animal was secured and a pair of stimulating needle electrodes was transcutaneously inserted into the surroundings of the tibial nerve. For recording, a pair of silver needle electrodes was placed into the interosseous muscles between the fourth and the fifth or the first and the second metatarsal right foot muscles. The tibial nerve was stimulated using square pulses with increasing stimulus intensity (0.1-10 mA in 0.5 mA increments, 0.1 Hz, 0.2 ms; WPI; Isostim A320) and responses were recorded with an A/C-coupled differential amplifier (Model DB4; DPI, Sarasota, Fla.). After the M-max and H-max responses were identified the intensity of stimulus which evoked H-max amplitudes were used in subsequent high frequency (20 Hz) stimulation experiment. In HIV1-CMVGAD65-GFP (n=6) or HIV1-CMV-GFP (n=6) lentivirus-injected animals a high frequency stimulation was performed in 5 min intervals for up to 90 min after tiagabine (40 mg/kg, i.p.) injection. Changes in H-wave amplitude were then compared between both lentivirus-injected groups.

[7] = tested on: lumbar gray matter extracellular GABA; experiment: Spinal cord microdialysis, extracellular GABA by HPLC; type: in vivo, rat; conditions: tiagabine 40 mg/kg i.p., at 20-40 min
Experimental: Spinal cord microdialysis was performed in naive (n=6), spastic-non treated (n=6), spastic HIV1-CMV-GFP lentivirus-injected (n=6) and spastic HIV1-CMV-GAD65-GFP (n=6) lentivirus-injected animals. Rats were anesthetized with 2% isoflurane, previous laminectomy site (in lentivirus injected animals) re-exposed and concentric microdialysis probe (A-2-8-02; cut off: MW 50,000; EICOM, Japan) placed into central gray matter between L3-L6 spinal cord segments. Microdialysis fiber was perfused with artificial CSF at 2 μl/min and samples collected on dry ice. After 120 min washout samples were collected in 20 min intervals before and after tiagabine (40 mg/kg, i.p.) injections and analyzed for GABA using HPLC (HTEC-500; EICOM).

[8] = tested on: upper extremity motor function; experiment: Side effects / upper extremity motor function in treated spastic rats; type: in vivo, rat
[9] = human patients; cited from earlier work
[10] = rats; cited from earlier work
[11] = tested on: brain extracellular GABA; conditions: after systemic administration of 11.5-21 mg/kg; cited from earlier work

For `NCC(CC(=O)O)c1ccc(Cl)cc1` (stereo not shown) [baclofen], the anti-spasticity effect [1] is listed as “potent anti-spasticity effect; also recorded: previously reported anti-spasticity effect”, the “anti-spasticity effect in clinical studies” value [2] is listed as “most potent anti-spasticity pharmacological treatment” and the “major side effects limiting chronic use” value ([2]; systemic or spinally-administered) is listed as “general sedation and progressive tolerance development”. For the same molecule, the H-reflex activity [3] was “significant suppression of H-reflex activity”.

In the case of `NCCCC(=O)O` [GABA, gamma-aminobutryic acid], the anti-spasticity effect ([4]; GABA 1 mg intrathecal alone, measured for 60 min) is listed as “No significant anti-spasticity effect” and the “concentrations required to exert receptor-mediated effect” value [5] is listed as 1 to 2 µmol.

In the case of `Cc1ccsc1C(=CCCN1CCC[C@@H](C(=O)O)C1)c1sccc1C` [tiagabine], the “time of peak anti-spasticity effect after tiagabine administration” value ([4]; HIV1-CMV-GAD65-GFP-injected spastic rats) is reported as 25 min, the “tiagabine doses providing significant (p<0.01) anti-spasticity effect” value ([4]; dose response 1, 4, 10, 20, 40 mg/kg, at 15-25 min after injection, HIV1-CMV-GAD65-GFP-injected spastic rats) is reported as ≥ 4 mg/kg and the anti-spasticity effect ([4]; systemic tiagabine in spastic rats injected spinally (L2-L5) with GAD65-encoding lentivirus (HIV1-CMV-GAD65-GFP)) is reported as “potent, dose-dependent reduction in spasticity; also recorded: potent and tiagabine-dose-dependent alleviation of spasticity; also recorded: potent and significant anti-spasticity effect”. The anti-spasticity effect ([4]; tiagabine 40 mg/kg i.p. alone (monotherapy)) was “without anti-spasticity effect”, the anti-spasticity effect ([4]; tiagabine 40 mg/kg i.p. followed 15 min later by intrathecal GABA 1 mg) was “potent and highly significant anti-spasticity effect” and the anti-spasticity effect ([4]; tiagabine 40 mg/kg i.p. in spastic rats injected spinally with control HIV1-CMV-GFP lentivirus) was “no antispasicity effect; also recorded: without effect”. For the same molecule, the “change in H-wave amplitude” value ([6]; tiagabine 40 mg/kg i.p., HIV1-CMV-GAD65-GFP-injected spastic rats, ketamine-sedated) was “significant (p<0.05) reduction”, the “change in H-reflex amplitudes” value ([6]; tiagabine 40 mg/kg i.p., control HIV1-CMV-GFP-injected spastic rats, up to 90 min, ketamine-sedated) was “no change” and the “H-wave amplitude returned back to baseline by” value ([6]; {}) was ≤ 65 min. The “time window of significant H-wave amplitude reduction after tiagabine injection” value ([6]; {}) was 20 to 45 min, the “spinal extracellular GABA concentration, change after tiagabine” value ([7]; HIV1-CMV-GAD65-GFP lentivirus-injected spastic animals) was “significant (p<0.05) increase” and the “spinal extracellular GABA concentration, change after tiagabine” value ([7]; naive animals) was “significant (p<0.05) increase”. The “effect on upper limb motor function” value ([8]; after tiagabine in spastic rats with lumbar GAD65 lentivirus injection) was “No detectable effect”, the side effect ([8]; either treatment alone (GAD65-LVs injection only or tiagabine only)) was “nor had any detectable side effect” and the “effect on upper extremity motor function” value ([8]; tiagabine 40 mg/kg i.p. + intrathecal GABA 1 mg) was “No suppressive effect”. The serum half-life [9] was 5 to 8 h, the serum half-life [10] was 0.917 h and the “increase in brain levels of extracellular GABA” value [11] was 2-3 fold. For the same molecule, the “anti-spasticity effect in clinical studies” value [2] was “only a weak or no anti-spasticity effect”.
